Measurements: EP4603492A1, “SULFONAMIDE COMPOUND AND HARMFUL-ARTHROPOD-CONTROLLING COMPOSITION CONTAINING SAME” (Sumitomo Chemical Company, Limited, priority 2022, dated 2024)

Legend:
Format in all cases: in vivo
[1] = test system: German cockroach (Blattella germanica); experiment: Test method 6: coated container contact test, German cockroach male adults; conditions: 72 h, read-out: mortality of insects
Experimental: An acetone solution prepared by making the concentration of the test compound 800 ppm is poured into a 50 mL container, and the inner face of the container is uniformly coated with the test compound so as to make the coating amount of 40 mg/m^2, followed by drying.
Five German cockroach (Blattella germanica) male adults are released into the container, and the container is then covered with a lid. After the prescribed time is elapsed, the state of the German cockroach are examined. The mortality of insects is calculated by the following equation. [formula]
The test was carried out by making the prescribed elapsed time 3 days and using the following present compounds as a test compound according to the test method 6.

[2] = test system: cotton aphids (Aphis gossypii); experiment: Test method 1: spray on cucumber seedlings infested with cotton aphids (Formulation Example 1); conditions: 120 h, Test Example 1-1, spray 10 mL/seedling, 5 days after spraying, 25°C, read-out: control value
Experimental: (§1) Each test compound is formulated according to the method mentioned in Formulation Example 1 to obtain each formulation, and water containing 0.03% by volume of Shindaine (registered trademark) is added thereto to prepare a diluted solution containing a prescribed concentration of each test compound.
Approximately 30 cotton aphids (Aphis gossypii) (all stages of life) are released onto cucumber (Cucumis sativus) seedlings (on the developmental stage of the second true leaf) planted in a container. After 1 day, each of the diluted solutions is sprayed over the seedlings in a ratio of 10 mL/seedling. After additional 5 days, the number of the surviving insects is examined and the control value is calculated by the following equation. Control value (%) = {1−(Cb×Tai)/(Cai×Tb)} × 100 [formula] where symbols in the equation represent the following meanings: • Cb: Number of test insects in non-treated area; • Cai: Number of surviving insects at the time of the investigation in non-treated area; • Tb: Number of test insects in treated area; and • Tai: Number of surviving insects at the time of the investigation in treated area.
Here, the "non-treated area" represents an area where the same treatment procedure as that of the treated area is carried out except for not using each test compound.
The test was carried out by making the prescribed concentration 500 ppm and using the following present compounds as a test compound according to the test method 1.

[3] = test system: common cutworm (Spodoptera litura); experiment: Test method 9: sprayed cabbage seedlings, 3rd instar larvae of common cutworm (Formulation Example 5); conditions: 144 h, Test Example 9-1, spray 20 mL/seedling, after 6 days, 25°C
Experimental: (§2) Each test compound is formulated according to the method mentioned in Formulation Example 5 to obtain each formulation, and water containing 0.03% by volume of Shindaine (registered trademark) is added thereto to prepare a diluted solution containing a prescribed concentration of each test compound.
(§3) Each of the diluted solutions is sprayed over cabbage (Brassicae oleracea) seedlings (on the developmental stage of the third to fourth true leaf) planted in a container in a ratio of 20 mL/seedling. Thereafter, ten 3rd instar larvae of common cutworm (Spodoptera litura) are released into the container. After 6 days, the number of the surviving insects is counted and the mortality of insects is calculated by the following equation. [formula]
The test was carried out by making the prescribed concentration 200 ppm and using the following present compounds as a test compound according to the test method 9.

[4] = test system: common house mosquito (Culex pipiens pallens); experiment: Test method 12: final instar larvae of common house mosquito released into diluted solution; conditions: 24 h, read-out: control value
Experimental: Each test compound is formulated according to the method mentioned in Formulation Example 1 to obtain each formulation, and water is added thereto to prepare a diluted solution containing a prescribed concentration of each test compound.
Thirty final instar larvae of common house mosquito (Culex pipiens pallens) are released into the diluted solution and, after 1 day, the state of the common house mosquito larvae is examined and the mortality of insects is calculated by the following equation. [formula]
The test was carried out by making the prescribed concentration 3.5 ppm and using the following present compounds as a test compound according to the test method 12.

[5] = test system: western corn rootworm (Diabrotica virgifera virgifera); experiment: whole plant or invertebrate; conditions: 120 h
Experimental: Each test compound is dissolved in 50 µL of a mixed solution of polyoxyethylene sorbitan monococoate and acetone (at a volume ratio of 5:95) per 1 mg of the test compound. Water containing 0.03% by volume of Shindaine (registered trademark) is added thereto to prepare a diluted solution containing a prescribed concentration of each test compound.
Young seedlings of corns (Zea mays) are immersed in each of the diluted solutions for 30 seconds. Thereafter, two seedlings are placed in a petri dish (diameter: 90 mm), and ten 2nd instar larvae of western corn rootworm (Diabrotica virgifera virgifera) are released into the dish. After 5 days, the number of the […] is counted, and the mortality of insects is calculated by the following equation. Mortality (%) = (1−Numberofdeadinsects/10) × 100 [formula]
The test was carried out by making the prescribed concentration 200 ppm and using the following present compounds as a test compound according to the test method 5.

[6] = test system: cotton aphids (Aphis gossypii); experiment: whole plant or invertebrate; conditions: topical, 120 h, read-out: control value
Experimental: Each test compound is formulated according to the method mentioned in Formulation Example 5 to obtain each formulation, and water containing 0.03% by volume of […] (registered trademark) is added thereto to prepare a diluted solution containing a prescribed concentration of each test compound. Approximately thirty cotton aphids (Aphis gossypii) (all stages of life) are released onto cucumber (Cucumis sativus) seedlings (on the developmental stage of the second true leaf) planted in a container. After 1 day, each of the diluted solutions is sprayed over the seedlings in a ratio of 10 mL/seedling. After additional 5 days, the number of the surviving insects is examined and the control value is calculated by the following equation. Control value (%) = {1-(Cb×Tai)/(Cai×Tb)} × 100 [formula] where symbols in the equation represent the following meanings: • Cb: Number of test insects in non-treated area; • Cai: Number of surviving insects at the time of the investigation in non-treated area; • Tb: Number of test insects in treated area; and • Tai: Number of surviving insects at the time of the investigation in treated area. Here, the "non-treated area" represents an area where the same treatment procedure as that of the treated area is carried out except for not using each test compound. The test was carried out by making the prescribed concentration 200 ppm and using the following present compounds as a test compound according to the test method 11. […] The test was carried out by making the prescribed concentration 50 ppm and using the following present compounds as a test compound according to the test method 11.

[7] = test system: houseflies (Musca domestica); experiment: Test method 8: coated container contact test, adult male houseflies; conditions: 24 h, read-out: mortality of insects
Experimental: An acetone solution prepared by making the concentration of the test compound 800 ppm is poured into a 20 mL container, and the inner face of the container is uniformly coated with the test compound so as to make the coating amount of 40 mg/m^2, followed by drying.
Five adult male houseflies (Musca domestica) are released into the container, and the container is then covered with a lid. After the prescribed time is elapsed, the state of the houseflies are examined. The mortality of insects is calculated by the following equation. [formula]
The test was carried out by making the prescribed elapsed time 1 day and using the following present compounds as a test compound according to the test method 8.

[8] = test system: diamondback moth (Plutella xylostella); experiment: Test method 4: sprayed cabbage leaves, 2nd instar larvae of diamondback moth (Formulation Example 1); conditions: 120 h, Test Example 4-1, spray 20 mL/seedling, after 5 days, 25°C
Experimental: as §1
(§4) Each of the diluted solutions is sprayed over cabbage (Brassicae oleracea) seedlings (on the developmental stage of the second to third true leaf) planted in a container in a ratio of 20 mL/seedling. Thereafter, the stem and leaf of the seedlings are cut out, and placed in a container lined with a filter paper. Five 2nd instar larvae of diamondback moth (Plutella xylostella) are released into the container. After 5 days, the number of the surviving insects is counted, and the mortality of insects is calculated by the following equation. [formula]
The test was carried out by making the prescribed concentration 500 ppm and using the following present compounds as a test compound according to the test method 4.

[9] = test system: common cutworm (Spodoptera litura); experiment: Test method 3: sprayed cabbage leaves, 2nd instar larvae of common cutworm (Formulation Example 1); conditions: 120 h, Test Example 3-1, spray 20 mL/seedling, after 5 days, 25°C
Experimental: as §1
as §4, with “common cutworm (Spodoptera litura)” for “diamondback moth (Plutella xylostella)”
The test was carried out by making the prescribed concentration 500 ppm and using the following present compounds as a test compound according to the test method 3.

[10] = test system: diamondback moth (Plutella xylostella); experiment: Test method 10: sprayed cabbage seedlings, 3rd instar larvae of diamondback moth (Formulation Example 5); conditions: 120 h, spray 20 mL/seedling, after 5 days, 25°C; for mortality at 200 ppm: Test Example 10-1, 200 ppm; for mortality at 50 ppm: Test Example 10-2, 50 ppm
Experimental: as §2
as §3, with “diamondback moth (Plutella xylostella)” for “common cutworm (Spodoptera litura)”, “5” for “6”, “counted,” for “counted”
The test was carried out by making the prescribed concentration 200 ppm and using the following present compounds as a test compound according to the test method 10.
The test was carried out by making the prescribed concentration 50 ppm and using the following present compounds as a test compound according to the test method 10.

Structure (SMILES) | mortality at 40 mg/m2, 40 mg/m2 [1] [%] | mortality at 500 ppm [2] [%] | mortality at 200 ppm [3] [%] | mortality at 3.5 ppm [4] [%] | mortality at 200 ppm [5] [%] | mortality at 50 ppm [6] [%] | mortality at 200 ppm [6] [%] | mortality at 40 mg/m2, 40 mg/m2 [7] [%] | mortality at 500 ppm [8] [%] | mortality at 500 ppm [9] [%] | mortality at 200 ppm [10] [%] | mortality at 50 ppm [10] [%]
CCNS(=O)(=O)c1c(-c2cnc(OCC(F)(F)C(F)(F)F)cn2)nc2ccc(Br)cn12 [compound 2] | ≥ 80 | ≥ 90 | ≥ 80 | ≥ 90 | ≥ 80 | ≥ 90 | ≥ 90 | ≥ 80 | ≥ 80 | ≥ 80 | ≥ 80 | ≥ 80
CNS(=O)(=O)c1c(-c2cnc(OCC(F)(F)C(F)(F)F)cn2)nc2ccc(Br)cn12 [compound 1] | ≥ 80 | ≥ 90 | ≥ 80 | ≥ 90 | ≥ 80 | ≥ 90 | ≥ 90 | ≥ 80 | ≥ 80 | ≥ 80 | ≥ 80 | ≥ 80
CN(C)S(=O)(=O)c1c(-c2ccc(OCC(F)(F)C(F)F)nn2)nc2ccc(I)cn12 [compound 4] |  | ≥ 90 | ≥ 80 |  |  |  |  |  | ≥ 80 | ≥ 80 | ≥ 80 | ≥ 80
CNS(=O)(=O)c1c(-c2ccc(OCC(F)(F)C(F)F)nn2)nc2ccc(I)cn12 [compound 3] |  | ≥ 90 | ≥ 80 |  | ≥ 80 | ≥ 90 | ≥ 90 |  | ≥ 80 | ≥ 80 | ≥ 80 | ≥ 80
